# Source: article PMC6753678, “Fueling Open Innovation for Malaria Transmission-Blocking Drugs: Hundreds of Molecules Targeting Early Parasite Mosquito Stages” (Frontiers in Microbiology, 2019)
# Where two headings read alike, the source gives them in different places.
# Experiments:
# [1] = test system: 3D7-strain P. falciparum asexual parasites; test: P. falciparum asexual growth inhibition assay (Pf GIA); assay type: cell-based, Plasmodium falciparum; details: dose response confirmation; read-out: Pf asexual growth inhibition assays IC50
# Procedure: The asexual activity of active compounds was tested in dose response with parasite lactate dehydrogenase (LDH) activity used as a readout of parasite viability as described in [Gamo et al. (2010)]. Briefly, 3D7-strain P. falciparum asexual parasites were diluted to 0.25% parasitemia, 2% hematocrit in culture medium composed of RPMI medium with 25 mM HEPES, 2% D-sucrose, 0.3% L-glutamine, 150 μM hypoxanthine plus 5% albumax. 25 μl of parasite inoculum was then dispensed into each well of a 384 well plate containing test compounds and positive (50 μM chloroquine) and negative (DMSO) controls. Plates were incubated for 72 h at 37°C in a 5% CO2, 5%O2, 90% N2 environment before being frozen at −70°C. Plates were then thawed and 70 μl of reaction mix (143 mM sodium L-lactate, 143 mM 3-acetyl pyridine adenine dinucleotide, […] Nitro Blue tetrazolium chloride, […] diaphorase (2.83 U/ml), 0.7% Tween 20, 100 mM Tris–HCl pH 8.0) was added to each well using a Multidrop Combi automated dispenser. Plates were shaken to mix and then absorbance at 650 nm was measured after 10 min incubation at room temperature. Percent inhibition of asexual growth was then calculated with respect to positive and negative controls. Data presented is the mean of three independent biological replicates.
# [2] = test system: P. berghei ookinete development; details: for % inhibition, Replicate A / % inhibition, Replicate B: primary screen at 1 μM
# HepG2 cells = test: HepG2 cytotoxicity assay; details: for Pb ODA (this manuscript) HepG2 cytoxicity: HepG2 cytotoxicity listed with the Pb ODA data set (this manuscript); for IC50: read-out: HepG2 cytotoxicity assay IC50, dose response confirmation
# Procedure: Briefly, HepG2 cells were seeded onto compound-treated 384 well plates at a density of 2,500 cells per well in Minimal Essential Medium (MEM) plus 10% fetal bovine serum and 1% non-essential amino acids solution (NEAA). Cells were incubated with test compounds or 50 μM doxorubicin (positive) and DSMO (negative) controls at 37°C for 48 h in a humidified 5% CO2 atmosphere. […] Cell viability was then measured in a fluorescent plate reader and percent inhibition calculated with respect to positive and negative controls.
# [3] = read-out: Pb ODA (this manuscript) IC50, P. berghei ookinete development assay, this manuscript
# [4] = read-out: Pb Ookinete development assay IC50, dose response confirmation
# [5] = read-out: Pb ODA IC50, this manuscript
# [6] = HepG2 values of the three screens unified
# [7] = unified HepG2 value across the three screens
SMILES,IC50 [1] [nM],Is compound selective in assay? Pb ODA active? [2],"% inhibition, Replicate A [2] [%]","% inhibition, Replicate B [2] [%]","IC50 [2, 3] [nM]","IC50 [2, 4] [nM]",Pb ODA (this manuscript) HepG2 cytoxicity (HepG2 cells) [µM],IC50 (HepG2 cells) [nM],"Is compound selective in assay? Pb ODA active? ([2]; 1: YES, 0: NO)","IC50 [2, 5] [nM]","HepG2 cytoxicity (Pb ODA, this manuscript) (HepG2 cells) [µM]",Unified cytotox (HepG2 cells; [6]) [µM],Unified cytotox (HepG2 cells; [7]) [µM]
CCCCCCc1c(C)nc2cc(OC)ccc2c1O [TCMDC-138010],163,1 (key: 1: YES; 0: NO),110.05,119.15,80,81,100.00,100000,–,–,–,–,–
Cc1[nH]c(C)c(-c2ccc(-c3cc(C(F)(F)F)cc(C(F)(F)F)c3)nc2)c(=O)c1Br [TCMDC-136015],24,–,84.59,96.22,–,107,–,1260,1 (1: YES),110,1.26,1.26,–
CCn1c(C)cc(C=C2SC(=Nc3ccccc3)NC2=O)c1C [TCMDC-124456],1700,–,41.94,67.52,–,1000,–,97300,1 (1: YES),1010,–,–,97.27
COc1ccc(CCc2ccc(-c3c(C)[nH]c(C)c(Cl)c3=O)cc2)cc1OC [TCMDC-135789],119,–,97.42,111.57,–,277,–,100000,1 (1: YES),280,–,100.00,–
CNC(=O)c1ccccc1Nc1nc(Nc2ccc(CCN3CCN(C)CC3)cc2)ncc1Cl.Cl [TCMDC-133800],402,0 (key: 1: YES; 0: NO),66.37,76.75,2310,2320,2.26,2260,–,–,–,–,–
Cc1[nH]c(C)c(-c2ccc(Oc3ccc(C(F)(F)F)cc3)cc2)c(=O)c1Br [TCMDC-137406],133,–,103.93,109.45,–,127,–,5750,1 (1: YES),130,5.75,5.75,–
CC(=O)Oc1c(Cl)c(C)nc(C)c1-c1ccc(Oc2ccc(Cl)cc2)cc1 [TCMDC-137381],34,1 (key: 1: YES; 0: NO),96.93,129.91,100,98,2.63,2630,–,–,–,–,–
CCCCCCCCc1c(C)[nH]c(C)c(Cl)c1=O [TCMDC-137538],102,–,94.00,90.22,–,131,–,4790,1 (1: YES),130,–,–,4.79
COc1ccc2nc(-c3cc(-c4ccc(NC(C)=O)cc4)cnc3N)[nH]c2c1 [TCMDC-135365],1280,–,88.78,104.70,–,442,–,12000,1 (1: YES),440,–,–,12.02
Cc1[nH]c(C)c(-c2ccc(C(=O)c3ccc(Cl)cc3)cc2)c(=O)c1Br [TCMDC-137407],56,1 (key: 1: YES; 0: NO),83.43,91.19,80,78,44.67,44700,–,–,–,–,–
Br.CC1(C)NC(N)=NC(=N)N1OCCCOc1cc(Cl)ccc1Cl [TCMDC-131679],< 0.2,0 (key: 1: YES; 0: NO),77.33,60.56,3390,3390,0.001,1,–,–,–,–,–
COc1cccc(Cn2ccc3c4c(N)nc(N)nc4ccc32)c1 [TCMDC-137811],< 0.2,–,65.46,68.96,–,1560,–,12.9,0 (0: NO),1560,0.0129,0.0129,–
COc1cc(OC)nc(C(Sc2ccc(NC(=O)c3cccs3)cc2)c2ccccc2)n1 (centres unmarked) [TCMDC-124257],184,–,29.98,55.99,–,973,–,100000,1 (1: YES),970,–,–,100.00
CCCCC1=CC2C(=O)C(C(=O)OC)=CN=C2C=C1OCc1ccccc1 (centres unmarked) [TCMDC-137492],140,–,85.39,106.84,–,3020,–,100000,1 (1: YES),3020,–,–,100.00
COc1ccc(Cn2c(Nc3cccc(C(F)(F)F)c3)nc3cc(C(=O)NC(C)C)cnc32)cc1Cl [TCMDC-138556],1400,–,25.40,50.20,–,5440,–,51300,0 (0: NO),5440,–,–,51.29
Cc1[nH]c(C)c(-c2ccc(OCc3cc(C(F)(F)F)cc(C(F)(F)F)c3)nc2)c(=O)c1Br [TCMDC-135815],279,–,74.97,105.72,–,122,–,710,0 (0: NO),120,0.71,0.71,–
COc1nc2c(CCN3CCC(NCc4ccc5c(n4)NC(=O)CO5)CC3)c(Cl)cnc2cc1F.Cl [TCMDC-135766],2740,1 (key: 1: YES; 0: NO),65.11,58.19,3720,3720,42.66,42700,–,–,–,–,–
COc1ccc2nccc([C@@H](O)CN3CCC(NCc4cc5c(F)ccc(F)c5[nH]4)CC3)c2c1.O=C(O)C(=O)O [TCMDC-140739],98,–,18.82,50.21,–,2790,–,14800,0 (0: NO),2790,14.79,14.79,–
CNC(=O)c1cc(F)c(F)cc1Nc1nc(Nc2cccc(CS(C)(=O)=O)c2)ncc1Cl.O=CO [TCMDC-134060],1570,1 (key: 1: YES; 0: NO),53.04,41.11,2150,2150,100.00,100000,–,–,–,–,–
Cc1[nH]c(C)c(-c2ccc(-c3ccc4c(c3)OCO4)nc2)c(=O)c1Br [TCMDC-136161],646,–,101.58,91.12,–,1430,–,100000,1 (1: YES),1430,–,100.00,–
Cl.c1ccc(CN2CCN(CCNc3c4ccccc4nc4ccccc34)CC2)cc1 [TCMDC-137571],446,–,19.05,55.37,–,2900,–,24000,0 (0: NO),2890,23.99,23.99,–
Cc1[nH]c(C)c(-c2ccc(Oc3cccc(OC(F)(F)F)c3)cc2)c(=O)c1Cl [TCMDC-137389],470,1 (key: 1: YES; 0: NO),25.35,53.00,1130,1130,100.00,100000,–,–,–,–,–
